The results in this text go back to patent US10087185B2 (Janssen Pharmaceutica NV, priority 2016, dated 2018).

In this assay the target is TARP γ8 dependent AMPA receptor (GRIA1o-CACNG8 fusion construct) (Homo sapiens (Human), UniProt P42261+Q8WXS5). Briefly: Calcium flux assay (FLIPR), inhibition of glutamate response of GluA1o-γ8 channel. The class given is cell-based. As to conditions: HEK293 cells stably expressing GRIA1o-CACNG8 fusion; calcium flux after 15 μM glutamate; negative log of the IC50 in molar. The source says: This assay was used to test compounds for their ability to inhibit TARP γ8 dependent AMPA receptor activity. The AMPA receptor is a non-selective cation channel activated by glutamate. […] But, this desensitization is incomplete, and a substantial steady-state current remains in the sustained presence of glutamate (Cho et al. (2007). “Two families of TARP isoforms that have distinct effects on the kinetic properties of AMPA receptors and synaptic currents.” Neuron 55(6): 890-904).
Sequence of TARP γ8 dependent AMPA receptor (GRIA1o-CACNG8 fusion construct) (P42261 other isoform, or with tags, fused parts or gaps): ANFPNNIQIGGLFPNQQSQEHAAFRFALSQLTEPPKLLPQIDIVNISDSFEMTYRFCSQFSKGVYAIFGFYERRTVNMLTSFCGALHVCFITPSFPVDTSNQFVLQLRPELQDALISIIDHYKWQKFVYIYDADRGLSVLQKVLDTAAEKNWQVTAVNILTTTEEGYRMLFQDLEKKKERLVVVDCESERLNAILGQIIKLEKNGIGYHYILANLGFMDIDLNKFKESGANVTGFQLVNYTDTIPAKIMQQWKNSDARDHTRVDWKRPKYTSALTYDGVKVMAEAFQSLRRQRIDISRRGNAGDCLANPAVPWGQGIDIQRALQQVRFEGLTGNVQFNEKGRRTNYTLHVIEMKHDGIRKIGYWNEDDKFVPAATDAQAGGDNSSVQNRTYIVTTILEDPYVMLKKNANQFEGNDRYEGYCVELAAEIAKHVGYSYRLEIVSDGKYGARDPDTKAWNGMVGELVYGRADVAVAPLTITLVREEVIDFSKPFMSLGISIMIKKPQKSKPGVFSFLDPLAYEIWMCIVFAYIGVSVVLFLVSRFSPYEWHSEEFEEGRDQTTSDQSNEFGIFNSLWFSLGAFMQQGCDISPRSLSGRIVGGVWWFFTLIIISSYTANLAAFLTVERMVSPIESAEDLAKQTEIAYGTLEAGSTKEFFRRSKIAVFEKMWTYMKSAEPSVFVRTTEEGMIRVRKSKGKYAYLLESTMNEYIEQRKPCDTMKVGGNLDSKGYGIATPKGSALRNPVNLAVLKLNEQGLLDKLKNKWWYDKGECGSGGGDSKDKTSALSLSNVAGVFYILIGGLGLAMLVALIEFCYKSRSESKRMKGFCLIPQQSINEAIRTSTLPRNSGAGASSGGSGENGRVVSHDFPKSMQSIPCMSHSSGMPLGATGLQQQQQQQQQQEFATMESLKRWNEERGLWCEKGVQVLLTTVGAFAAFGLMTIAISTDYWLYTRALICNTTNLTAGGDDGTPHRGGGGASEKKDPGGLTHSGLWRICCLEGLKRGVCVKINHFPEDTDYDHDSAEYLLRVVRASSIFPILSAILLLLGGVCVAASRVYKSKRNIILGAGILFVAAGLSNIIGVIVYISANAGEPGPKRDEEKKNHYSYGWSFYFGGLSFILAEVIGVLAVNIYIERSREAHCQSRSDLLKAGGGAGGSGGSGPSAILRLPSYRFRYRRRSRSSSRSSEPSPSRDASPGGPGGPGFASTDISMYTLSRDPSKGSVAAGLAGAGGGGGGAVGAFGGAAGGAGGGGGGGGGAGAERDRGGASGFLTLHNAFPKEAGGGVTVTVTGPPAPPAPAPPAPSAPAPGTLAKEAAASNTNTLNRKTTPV
An in vitro assay was used to determine the potency of test compounds as inhibitors of the glutamate response of the channel formed by GluA10-γ8. To ensure a 1:1 stoichiometry of GluA1o and γ8 subunits in the expressed channel, a fusion of the cDNAs for GRIA1o and CACNG8 was used. Following Shi et al (2009) “The stoichiometry of AMPA receptors and TARPs varies by neuronal cell type.” Neuron 62(5): 633-640), the C-terminus of the cDNA for GRIA1o was fused to the N-terminus of the cDNA for γ8. The linker sequence was […]. Channels expressed with this construct appear to have similar properties to channels formed by co-expression of GRIA1o with an excess of CACNG8 (Shi et al. 2009). A clonal cell line in HEK293 cells stably expressing this construct, with a geneticin selection marker, was generated for use in this assay.
Cell expressing the GRIA1o-CACNG8 fusion construct were grown in a monolayer in 96- or 384-well microtiter plates. They were washed with assay buffer (135 mM NaCl, 4 mM KCl, 3 mM CaCl2, 1 mM MgCl2, 5 mM glucose, 10 mM HEPES, pH 7.4, 300 mOs) using a Biotek EL405 plate washer. The cells were then loaded with a calcium-sensitive dye (Calcium-5 or Calcium-6, Molecular Devices) and the test compounds at a range of concentrations. Calcium flux following the addition of 15 μM glutamate was monitored using a Molecular Devices FLIPR Tetra.
The fluorescence in each well was normalized to the fluorescence of negative and positive control wells. The negative control wells had no added compounds, and the positive control wells had been incubated with 10 μM CP465022 (a non-subtype-selective AMPA receptor antagonist) (Lazzaro et al. (2002). “Functional characterization of CP-465,022, a selective, noncompetitive AMPA receptor antagonist.” Neuropharmacology 42(2): 143-153). The responses to glutamate as functions of the test compound concentrations were fitted to a four-parameter logistic function. The fitted parameter corresponding to the midpoint was taken to be the potency of inhibition of the compound. The data in Table 4 below illustrates the observed potency for the compounds described herein. pIC50 refers to the negative log of the IC50 in molar.
(Calcium flux is commonly read through the fluorescence of an indicator in the cells.)
In the case of `Cc1cc(-c2c(-c3ccncc3)ccc3nc(C(F)(F)F)nn23)cc2cn[nH]c12` [Example 59, 5-(7-Methyl-1H-indazol-5-yl)-6-(pyridin-4-yl)-2-(trifluoromethyl)-[1,2,4]triazolo[1,5-a]pyridine], the IC50 is 6.31 nM.
As for `COc1nc2ccc(C(F)(F)F)c(-c3cc(Cl)c4[nH]ncc4c3)n2n1` [Example 43, 5-(7-Chloro-1H-indazol-5-yl)-2-methoxy-6-(trifluoromethyl)-[1,2,4]triazolo[1,5-a]pyridine], the IC50 was 3.16 nM.
In the case of `O=C1Cc2cc(-c3c(C(F)(F)F)ccc4nc(C(F)(F)F)nn34)cc(Cl)c2N1` [Example 3, 5-(2,6-Bis(trifluoromethyl)-[1,2,4]triazolo[1,5-a]pyridin-5-yl)-7-chloroindolin-2-one], the IC50 was 0.251 nM.
As for `CCc1nc2c(Cl)cc(C(F)(F)F)c(-c3cc(Cl)c4[nH]ncc4c3)n2n1` [Example 29, 8-Chloro-5-(7-chloro-1H-indazol-5-yl)-2-ethyl-6-(trifluoromethyl)-[1,2,4]triazolo[1,5-a]pyridine], the IC50 was 0.398 nM.
Consider `CCc1cc(C(F)(F)F)c(-c2cc(Cl)c3[nH]ncc3c2)n2nc(C3CC3)nc12` [Example 80, 5-(7-Chloro-1H-indazol-5-yl)-2-cyclopropyl-8-ethyl-6-(trifluoromethyl)-[1,2,4]triazolo[1,5-a]pyridine], for which the IC50 was 0.158 nM.
With `Cc1cc(-c2c(C(F)(F)F)ccc3cc(C(F)(F)F)nn23)cc2cn[nH]c12` [Example 64, 5-(2,6-Bis(trifluoromethyl)pyrazolo[1,5-a]pyridin-7-yl)-7-methyl-1H-indazole], the IC50 is 0.0158 nM.
On to `Cc1cc(-c2c(C(F)F)ccc3cc(C(F)(F)F)nn23)cc2cn[nH]c12` [Example 121, 6-(Difluoromethyl)-7-(7-methyl-1H-indazol-5-yl)-2-(trifluoromethyl)pyrazolo[1,5-a]pyridine], for which the IC50 is 0.0251 nM.
Consider `CCCc1nc2c(Cl)cc(C(F)(F)F)c(-c3cc(C)c4c(c3)CC(=O)N4)n2n1` [Example 98, 5-(8-Chloro-2-propyl-6-(trifluoromethyl)-[1,2,4]triazolo[1,5-a]pyridin-5-yl)-7-methylindolin-2-one], for which the IC50 was 0.794 nM.
Consider `CCc1ccc2nc(C(F)(F)F)nn2c1-c1cc(C)c2[nH]ncc2c1` [Example 52, 6-Ethyl-5-(7-methyl-1H-indazol-5-yl)-2-(trifluoromethyl)-[1,2,4]triazolo[1,5-a]pyridine], for which the IC50 was 0.501 nM.
Still for that read-out and setting: the value for `Cc1cc(-c2c(C(F)(F)F)cc(C)c3nc(C4CC4)nn23)cc2cn[nH]c12` [Example 76, 2-Cyclopropyl-8-methyl-5-(7-methyl-1H-indazol-5-yl)-6-(trifluoromethyl)-[1,2,4]triazolo[1,5-a]pyridine] was 0.158 nM.
Consider `CCCc1nc2c(C)cc(C(F)(F)F)c(-c3cc(C)c4c(c3)CC(=O)N4)n2n1` [Example 85, 7-Methyl-5-(8-methyl-2-propyl-6-(trifluoromethyl)-[1,2,4]triazolo[1,5-a]pyridin-5-yl)indolin-2-one], for which the IC50 was 0.316 nM.
As to `O=C1Cc2cc(-c3c(C(F)(F)F)ccc4cc(C5CC5)nn34)cc(Cl)c2N1` [Example 68, 5-(2-Cyclopropyl-6-(trifluoromethyl)pyrazolo[1,5-a]pyridin-7-yl)-7-chloroindolin-2-one], the IC50 was 0.02 nM.
Regarding `CCc1nc2ccc(C(F)F)c(-c3cc(Cl)c4[nH]ncc4c3)n2n1` [Example 44, 5-(7-Chloro-1H-indazol-5-yl)-6-(difluoromethyl)-2-ethyl-[1,2,4]triazolo[1,5-a]pyridine], the IC50 is 0.398 nM.
For `CCc1nc2ccc(C(F)(F)F)c(-c3cc(C)c4[nH]ncc4c3)n2n1` [Example 26, 2-Ethyl-5-(7-methyl-1H-indazol-5-yl)-6-(trifluoromethyl)-[1,2,4]triazolo[1,5-a]pyridine], the IC50 is 1 nM.
On the same count and under the same terms, the value for `O=C1Cc2cc(-c3c(C(F)(F)F)ccc4nc(C5CC5)nn34)cc(Cl)c2N1` [Example 40, 7-Chloro-5-(2-cyclopropyl-6-(trifluoromethyl)-[1,2,4]triazolo[1,5-a]pyridin-5-yl)indolin-2-one] was 0.398 nM.
Regarding `Cc1cc(C(F)(F)F)c(-c2cc(Cl)c3c(c2)CC(=O)N3)n2nc(C(F)(F)F)nc12` [Example 103], the IC50 was 0.158 nM.
Consider `FC(F)c1ccc2nc(C3CC3)nn2c1-c1cc(Cl)c2[nH]ncc2c1` [Example 48, 5-(7-Chloro-1H-indazol-5-yl)-2-cyclopropyl-6-(difluoromethyl)-[1,2,4]triazolo[1,5-a]pyridine], for which the IC50 is 0.2 nM.
For `CCCc1nc2c(Cl)cc(C(F)(F)F)c(-c3cc(Cl)c4c(c3)CC(=O)N4)n2n1` [Example 97, 7-Chloro-5-(8-chloro-2-propyl-6-(trifluoromethyl)-[1,2,4]triazolo[1,5-a]pyridin-5-yl)indolin-2-one], the IC50 was 0.501 nM.
With `Cc1cc(-c2c(C(F)(F)F)ccc3cc(C4CC4)nn23)cc2cn[nH]c12` [Example 69, 5-(2-Cyclopropyl-6-(trifluoromethyl)pyrazolo[1,5-a]pyridin-7-yl)-7-methyl-1H-indazole], the IC50 is 0.0501 nM.
Turning to `CCc1cc(C(F)(F)F)c(-c2cc(C)c3c(c2)CC(=O)N3)n2nc(C3CC3)nc12` [Example 82, 5-(2-Cyclopropyl-8-ethyl-6-(trifluoromethyl)-[1,2,4]triazolo[1,5-a]pyridin-5-yl)-7-methylindolin-2-one], the IC50 is 0.316 nM.
For `Cc1cc(C(F)(F)F)c(-c2cc(Cl)c3[nH]ncc3c2)n2nc(C(F)(F)F)nc12` [Example 6, 5-(7-Chloro-1H-indazol-5-yl)-8-methyl-2,6-bis(trifluoromethyl)-[1,2,4]triazolo[1,5-a]pyridine], the half-inhibitory concentration (IC50) is 0.2 nM.
With `Cc1cc(-c2c(C(F)(F)F)ccc3cc(C(C)C)nn23)cc2c1NC(=O)C2` [Example 71, 5-(2-Isopropyl-6-(trifluoromethyl)pyrazolo[1,5-a]pyridin-7-yl)-7-methylindolin-2-one], the IC50 was 0.0158 nM.
As for `Cc1cc(-c2c(C(F)(F)F)ccc3cc(C(C)C)nn23)cc2cn[nH]c12` [Example 74, 5-(2-Isopropyl-6-(trifluoromethyl)pyrazolo[1,5-a]pyridin-7-yl)-7-methyl-1H-indazole], the IC50 was 0.0794 nM.
In the case of `Cc1cc(-c2c(-c3ccc(F)cc3)ccc3nc(C4CC4)nn23)cc2cn[nH]c12` [Example 62, 2-Cyclopropyl-6-(4-fluorophenyl)-5-(7-methyl-1H-indazol-5-yl)-[1,2,4]triazolo[1,5-a]pyridine], the IC50 was 0.126 nM.
Consider `CCc1cc(C(F)F)c(-c2cc(Cl)c3[nH]ncc3c2)n2nc(C(F)(F)F)nc12` [Example 91, 5-(7-Chloro-1H-indazol-5-yl)-6-(difluoromethyl)-8-ethyl-2-(trifluoromethyl)-[1,2,4]triazolo[1,5-a]pyridine], for which the IC50 was 0.501 nM.
`Cc1cc(-c2c(C(F)(F)F)ccc3cc(C4CC4)nn23)cc2c1NC(=O)C2` [Example 67, 5-(2-Cyclopropyl-6-(trifluoromethyl)pyrazolo[1,5-a]pyridin-7-yl)-7-methylindolin-2-one]: the IC50 was 0.0501 nM.
Consider `Cc1cc(-c2c(C(F)(F)F)ccc3nc(C4CC4)nn23)cc2cn[nH]c12` [Example 39, 2-Cyclopropyl-5-(7-methyl-1H-indazol-5-yl)-6-(trifluoromethyl)-[1,2,4]triazolo[1,5-a]pyridine], for which the IC50 is 0.316 nM.
For `Cc1cc(-c2c(C(F)(F)F)cc(F)c3nc(C4CC4)nn23)cc2cn[nH]c12` [Example 33, 2-Cyclopropyl-8-fluoro-5-(7-methyl-1H-indazol-5-yl)-6-(trifluoromethyl)-[1,2,4]triazolo[1,5-a]pyridine], the IC50 was 0.2 nM.
With `CCc1nc2c(C)cc(C(F)(F)F)c(-c3cc(Cl)c4c(c3)CC(=O)N4)n2n1` [Example 100, 7-Chloro-5-(2-ethyl-8-methyl-6-(trifluoromethyl)-[1,2,4]triazolo[1,5-a]pyridin-5-yl)indolin-2-one], the IC50 was 0.631 nM.
Turning to `Cc1cc(C(F)F)c(-c2cc(Cl)c3[nH]ncc3c2)n2nc(C(F)(F)F)nc12` [Example 109, 5-(7-Chloro-1H-indazol-5-yl)-6-(difluoromethyl)-8-methyl-2-(trifluoromethyl)-[1,2,4]triazolo[1,5-a]pyridine], the pIC50 was 9.6.

The term IC50 denotes the point on the concentration scale where inhibition reaches its midpoint. The pIC50 is the negative decadic logarithm of the IC50, by convention in mol/L.
